Active and inactive are the calls of the source.
What was measured:
[1] = molecular target: Lysosomal acid glucosylceramidase (Homo sapiens, UniProt P04062); experiment: Dose response cell-based high throughput screening assay to identify enhancers of beta-glucosidase activity. [Related pubchem assays: 784 ]; format: functional
Cytochrome P450 2C9 = Cytochrome P450 2C9 (Homo sapiens, UniProt P11712)
Cytochrome P450 2C19 = Cytochrome P450 2C19 (Homo sapiens, UniProt P33261); experiment: Cytochrome panel assay with activity outcomes. Panel member name: p450-cyp2c19 Compounds with AC50 equal or less than 10 uM are considered active; format: functional; details: read-out: AC50
Cytochrome P450 2C19, sequence (P33261 whole entry): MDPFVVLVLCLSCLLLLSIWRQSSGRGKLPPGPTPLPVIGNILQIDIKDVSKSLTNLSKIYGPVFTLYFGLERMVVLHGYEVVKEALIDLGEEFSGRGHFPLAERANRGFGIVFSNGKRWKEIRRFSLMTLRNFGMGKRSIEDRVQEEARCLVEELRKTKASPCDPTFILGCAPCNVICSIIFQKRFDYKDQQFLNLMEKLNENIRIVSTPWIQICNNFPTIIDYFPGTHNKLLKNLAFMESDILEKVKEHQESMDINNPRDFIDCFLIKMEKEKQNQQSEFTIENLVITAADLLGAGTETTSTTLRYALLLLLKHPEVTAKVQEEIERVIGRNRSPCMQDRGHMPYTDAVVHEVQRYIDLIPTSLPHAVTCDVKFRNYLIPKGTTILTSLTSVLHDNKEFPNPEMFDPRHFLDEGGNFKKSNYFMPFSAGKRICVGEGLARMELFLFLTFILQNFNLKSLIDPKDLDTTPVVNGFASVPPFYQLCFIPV

Aspartyl aminopeptidase = Aspartyl aminopeptidase (Plasmodium falciparum 3D7, UniProt Q8I2J3)
Aspartyl aminopeptidase, sequence (Q8I2J3 whole entry): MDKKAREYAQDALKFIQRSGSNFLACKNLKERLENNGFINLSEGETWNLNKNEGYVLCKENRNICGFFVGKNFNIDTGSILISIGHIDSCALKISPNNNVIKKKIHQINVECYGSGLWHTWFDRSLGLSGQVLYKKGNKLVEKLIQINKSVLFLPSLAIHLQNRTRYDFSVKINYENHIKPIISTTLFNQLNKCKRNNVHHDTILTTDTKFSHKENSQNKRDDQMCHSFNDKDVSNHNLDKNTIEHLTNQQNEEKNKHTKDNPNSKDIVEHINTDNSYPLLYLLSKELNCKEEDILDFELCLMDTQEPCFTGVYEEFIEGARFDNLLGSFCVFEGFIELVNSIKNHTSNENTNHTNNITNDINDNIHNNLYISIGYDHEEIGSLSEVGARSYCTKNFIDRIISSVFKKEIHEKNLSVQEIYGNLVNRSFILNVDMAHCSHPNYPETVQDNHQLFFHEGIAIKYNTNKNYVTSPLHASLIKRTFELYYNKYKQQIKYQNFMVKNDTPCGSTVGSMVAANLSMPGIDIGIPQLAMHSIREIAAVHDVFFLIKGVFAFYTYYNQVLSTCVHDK

Procathepsin L = Procathepsin L (Homo sapiens, UniProt P07711)
Procathepsin L, sequence (P07711 whole entry): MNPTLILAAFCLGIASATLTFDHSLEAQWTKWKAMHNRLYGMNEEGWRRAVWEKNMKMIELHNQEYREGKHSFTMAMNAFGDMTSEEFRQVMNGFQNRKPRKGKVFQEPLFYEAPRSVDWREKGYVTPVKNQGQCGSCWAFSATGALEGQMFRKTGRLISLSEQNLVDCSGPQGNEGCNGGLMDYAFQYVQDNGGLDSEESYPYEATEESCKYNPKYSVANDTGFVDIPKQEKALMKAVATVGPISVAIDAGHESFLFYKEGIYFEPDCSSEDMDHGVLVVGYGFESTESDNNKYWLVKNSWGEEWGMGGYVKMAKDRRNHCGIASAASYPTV

[2] = molecular target: Peroxisome proliferator-activated receptor gamma/Nuclear receptor coactivator 2 (Homo sapiens, UniProt P37231); format: functional;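 also: agonist potency for raising coactivator recruitment to the receptor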
[3] = molecular target: Peroxisome proliferator-activated receptor gamma/Nuclear receptor coactivator 1 (Homo sapiens, UniProt P37231); format: functional;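 also: agonist potency as compounds enhance coactivator SRC-1 recruitment to PPARgamma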
[4] = molecular target: Peroxisome proliferator-activated receptor gamma/Nuclear receptor coactivator 3 (Homo sapiens, UniProt P37231); format: functional;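 also: agonist potency for raising coactivator recruitment to the receptor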
[5] = molecular target: T1, Alkaline phosphatase, tissue-nonspecific isozyme (Homo sapiens, UniProt P05186)
T1 sequence (P05186 whole entry): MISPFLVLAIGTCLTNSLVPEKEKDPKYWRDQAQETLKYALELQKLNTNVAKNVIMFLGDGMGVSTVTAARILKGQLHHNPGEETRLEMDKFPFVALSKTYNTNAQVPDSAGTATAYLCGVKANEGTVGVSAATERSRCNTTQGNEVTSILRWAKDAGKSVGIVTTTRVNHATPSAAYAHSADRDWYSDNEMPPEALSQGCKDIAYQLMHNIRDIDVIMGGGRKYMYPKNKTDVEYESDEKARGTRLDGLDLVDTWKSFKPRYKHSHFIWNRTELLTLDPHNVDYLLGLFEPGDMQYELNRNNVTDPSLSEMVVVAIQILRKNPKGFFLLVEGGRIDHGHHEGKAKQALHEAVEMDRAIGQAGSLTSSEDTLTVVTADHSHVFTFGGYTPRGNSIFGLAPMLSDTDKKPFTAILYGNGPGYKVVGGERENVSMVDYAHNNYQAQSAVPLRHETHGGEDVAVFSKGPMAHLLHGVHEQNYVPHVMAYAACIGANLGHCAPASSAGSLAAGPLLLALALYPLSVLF

Cytochrome P450 2D6 = Cytochrome P450 2D6 (Homo sapiens, UniProt P10635);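 also: CYP2D6 member of a cytochrome P450 panel assay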
Cytochrome P450 1A2 = molecular target: T2, Cytochrome P450 1A2 (Homo sapiens, UniProt P05177);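 also: PubChem cytochrome P450 panel assay, CYP1A2 panel member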
T2 sequence (P05177 whole entry): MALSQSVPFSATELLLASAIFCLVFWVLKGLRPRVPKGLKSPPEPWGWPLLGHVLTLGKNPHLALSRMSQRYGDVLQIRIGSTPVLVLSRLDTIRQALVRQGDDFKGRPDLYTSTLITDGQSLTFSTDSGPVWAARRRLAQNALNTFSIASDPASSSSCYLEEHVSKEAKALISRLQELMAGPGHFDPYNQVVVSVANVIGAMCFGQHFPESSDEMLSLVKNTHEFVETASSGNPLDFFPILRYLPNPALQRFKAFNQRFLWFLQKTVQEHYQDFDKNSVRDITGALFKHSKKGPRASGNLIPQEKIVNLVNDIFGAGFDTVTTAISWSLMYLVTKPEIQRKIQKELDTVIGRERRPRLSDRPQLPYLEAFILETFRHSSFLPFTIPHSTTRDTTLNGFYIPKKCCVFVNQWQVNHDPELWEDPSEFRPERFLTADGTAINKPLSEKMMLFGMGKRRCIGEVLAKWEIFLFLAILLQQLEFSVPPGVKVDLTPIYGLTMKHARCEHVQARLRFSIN

[6] = molecular target: Intestinal-type alkaline phosphatase (Homo sapiens, UniProt P09923); experiment: Dose Response confirmation of uHTS hits from a small molecule inhibitors of human intestinal alkaline phosphatase via a luminescent assay. [Related pubchem assays (depositor defined):AID2544, AID2574]; format: functional
[7] = molecular target: T3, Voltage-dependent T-type calcium channel subunit alpha-1H (Homo sapiens, UniProt O95180); format: functional
T3 sequence (O95180 whole entry): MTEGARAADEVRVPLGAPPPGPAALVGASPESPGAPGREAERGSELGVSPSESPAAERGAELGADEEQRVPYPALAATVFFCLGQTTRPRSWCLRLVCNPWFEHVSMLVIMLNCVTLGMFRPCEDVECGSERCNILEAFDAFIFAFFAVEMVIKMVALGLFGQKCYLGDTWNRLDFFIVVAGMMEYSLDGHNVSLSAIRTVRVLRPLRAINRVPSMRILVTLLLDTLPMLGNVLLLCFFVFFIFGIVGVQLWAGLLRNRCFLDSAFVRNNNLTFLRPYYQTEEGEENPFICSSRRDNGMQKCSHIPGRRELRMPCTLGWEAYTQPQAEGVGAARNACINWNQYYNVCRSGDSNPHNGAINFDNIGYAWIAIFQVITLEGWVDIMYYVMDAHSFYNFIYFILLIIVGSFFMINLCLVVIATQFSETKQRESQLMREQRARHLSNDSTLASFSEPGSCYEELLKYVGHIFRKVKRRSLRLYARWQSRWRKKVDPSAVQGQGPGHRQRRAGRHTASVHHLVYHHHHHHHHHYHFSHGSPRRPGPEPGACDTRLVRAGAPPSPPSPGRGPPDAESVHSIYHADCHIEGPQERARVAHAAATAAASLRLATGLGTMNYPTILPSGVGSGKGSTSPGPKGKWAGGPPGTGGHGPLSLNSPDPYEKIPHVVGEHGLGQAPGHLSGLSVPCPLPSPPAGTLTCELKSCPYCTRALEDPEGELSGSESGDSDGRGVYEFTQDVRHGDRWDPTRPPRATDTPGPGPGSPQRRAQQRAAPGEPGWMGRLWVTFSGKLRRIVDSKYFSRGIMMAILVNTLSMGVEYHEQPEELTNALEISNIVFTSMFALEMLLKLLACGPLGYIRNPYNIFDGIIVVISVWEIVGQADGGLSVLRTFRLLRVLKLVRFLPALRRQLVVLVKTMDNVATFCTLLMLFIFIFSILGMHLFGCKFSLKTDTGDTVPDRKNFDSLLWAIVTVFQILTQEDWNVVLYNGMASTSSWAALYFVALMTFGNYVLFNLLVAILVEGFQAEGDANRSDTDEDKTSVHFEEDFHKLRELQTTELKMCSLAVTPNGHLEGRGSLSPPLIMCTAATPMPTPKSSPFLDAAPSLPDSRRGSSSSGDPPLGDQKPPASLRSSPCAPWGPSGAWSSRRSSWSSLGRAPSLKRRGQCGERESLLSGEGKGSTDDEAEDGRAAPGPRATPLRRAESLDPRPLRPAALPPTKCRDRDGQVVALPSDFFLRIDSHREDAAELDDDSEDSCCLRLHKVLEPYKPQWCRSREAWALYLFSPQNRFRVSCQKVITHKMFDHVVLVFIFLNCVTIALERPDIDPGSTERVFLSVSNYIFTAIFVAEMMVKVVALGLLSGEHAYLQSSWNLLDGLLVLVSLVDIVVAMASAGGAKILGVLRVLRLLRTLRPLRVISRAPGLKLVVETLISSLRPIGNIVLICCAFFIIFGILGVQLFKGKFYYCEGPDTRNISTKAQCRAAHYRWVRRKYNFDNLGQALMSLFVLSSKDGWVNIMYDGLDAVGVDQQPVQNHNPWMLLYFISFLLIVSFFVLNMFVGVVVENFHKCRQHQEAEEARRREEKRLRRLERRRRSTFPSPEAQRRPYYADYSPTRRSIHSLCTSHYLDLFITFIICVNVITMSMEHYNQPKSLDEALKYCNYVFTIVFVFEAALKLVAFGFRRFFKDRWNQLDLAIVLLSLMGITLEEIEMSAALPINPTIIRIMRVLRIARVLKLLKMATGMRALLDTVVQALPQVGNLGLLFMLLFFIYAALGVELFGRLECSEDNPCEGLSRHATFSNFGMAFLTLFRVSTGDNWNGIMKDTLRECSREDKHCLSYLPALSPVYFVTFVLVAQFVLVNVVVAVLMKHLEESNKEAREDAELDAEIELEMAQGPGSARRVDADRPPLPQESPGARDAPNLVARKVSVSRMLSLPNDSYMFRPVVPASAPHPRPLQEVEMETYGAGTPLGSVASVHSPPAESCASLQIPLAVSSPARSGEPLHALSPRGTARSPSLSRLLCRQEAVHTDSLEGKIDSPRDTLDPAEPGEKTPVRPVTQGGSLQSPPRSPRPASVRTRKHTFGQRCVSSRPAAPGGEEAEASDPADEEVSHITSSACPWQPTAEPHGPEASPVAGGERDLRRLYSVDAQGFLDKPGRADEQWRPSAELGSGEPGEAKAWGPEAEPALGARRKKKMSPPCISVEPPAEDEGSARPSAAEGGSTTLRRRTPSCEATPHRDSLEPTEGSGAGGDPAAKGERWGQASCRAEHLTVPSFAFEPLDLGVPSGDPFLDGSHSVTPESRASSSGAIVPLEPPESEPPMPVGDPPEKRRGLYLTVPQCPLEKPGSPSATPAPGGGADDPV

[8] = molecular target: T3, Voltage-dependent T-type calcium channel subunit alpha-1H; experiment: Inhibitors of T-Type Calcium Channels. [Related pubchem assays (depositor defined):AID449739, AID463087, AID489005, AID493041, AID504579, AID504584, AID504619, AID504628]; format: functional
Vero [9] = experiment: host cell viability loss, Vero E6 – synthesized analogs, cytotoxicity control for West Nile virus antiviral project, SAR follow-up (AID 2244); format: functional; details: Chlorocebus sabaeus
Vero [10] = experiment: Vero cell viability after compound exposure – synthesized analogs, set II, cytotoxicity control for West Nile virus antiviral project, SAR follow-up (AID 2402); format: functional; details: Chlorocebus sabaeus
[11] = molecular target: T4, Kappa-type opioid receptor (Homo sapiens, UniProt P41145); format: functional
Beta-galactosidase = Beta-galactosidase (Escherichia coli, UniProt Q8VNN2); format: functional
[12] = molecular target: T4, Kappa-type opioid receptor; format: functional; remark: listed apart in the source
[13] = molecular target: T5, Heat shock factor protein 1 (Mus musculus, UniProt P38532); experiment: decrease of HSF1-responsive luciferase luminescence – cell-based, NIH3T3, dose retest, confirmation (AID 2382); format: functional;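 also: NIH3T3 fibroblasts with HSF1-driven luciferase reporter stressed by proteasome inhibitor MG132; luminescence from HSF1-driven luciferase expression after 8 hours of MG132 stress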
T5 sequence (P38532 whole entry): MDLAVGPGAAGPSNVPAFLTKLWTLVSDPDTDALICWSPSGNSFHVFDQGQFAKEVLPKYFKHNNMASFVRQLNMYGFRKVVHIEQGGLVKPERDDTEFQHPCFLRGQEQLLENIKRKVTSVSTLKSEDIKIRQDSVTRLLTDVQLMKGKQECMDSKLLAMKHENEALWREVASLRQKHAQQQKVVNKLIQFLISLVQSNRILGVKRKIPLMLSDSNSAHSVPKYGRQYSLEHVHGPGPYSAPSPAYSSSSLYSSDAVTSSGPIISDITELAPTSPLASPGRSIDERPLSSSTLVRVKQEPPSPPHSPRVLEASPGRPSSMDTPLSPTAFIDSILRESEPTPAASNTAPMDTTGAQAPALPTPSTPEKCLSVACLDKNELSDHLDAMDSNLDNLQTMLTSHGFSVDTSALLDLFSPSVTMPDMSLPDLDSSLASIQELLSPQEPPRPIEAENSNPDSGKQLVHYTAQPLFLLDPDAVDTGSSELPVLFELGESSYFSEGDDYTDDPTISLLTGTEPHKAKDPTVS

[14] = molecular target: T6, Calpain-2 catalytic subunit (Sus scrofa, UniProt P43367); experiment: m-calpain protease blockers, concentration series – biochemical, fluorogenic peptide substrate, dose response (AID 1420); format: functional
T6 sequence (P43367 whole entry): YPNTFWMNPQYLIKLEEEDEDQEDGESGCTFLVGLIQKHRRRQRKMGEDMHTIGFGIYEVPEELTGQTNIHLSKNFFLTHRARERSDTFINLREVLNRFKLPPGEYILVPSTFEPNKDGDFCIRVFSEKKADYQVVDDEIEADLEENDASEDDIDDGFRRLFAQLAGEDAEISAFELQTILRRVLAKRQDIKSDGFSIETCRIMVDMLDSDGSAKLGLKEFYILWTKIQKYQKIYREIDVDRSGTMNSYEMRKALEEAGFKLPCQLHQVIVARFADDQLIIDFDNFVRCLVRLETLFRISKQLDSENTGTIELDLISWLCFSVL

CHO-K1 = experiment: (§1) Counterscreen for antagonists of the orexin 1 receptor (OX1R; HCRTR1): Homogeneous time resolved fluorescence (HTRF)-based cell-based dose response assay to identify antagonists of the parental CHO-K1 cell line. [Related pubchem assays (depositor defined):AID434989, AID435008, AID463079, AID485270, AID492963, AID492964, AID492965, AID493232, AID504699, AID504701]; format: functional; details: Cricetulus griseus
[15] = molecular target: T7, Orexin/Hypocretin receptor type 1 (Homo sapiens, UniProt O43613); experiment: (§2) Fluorescence-based cell-based high throughput dose response assay for antagonists of the orexin 1 receptor (OX1R; HCRTR1). [Related pubchem assays (depositor defined):AID434989, AID435008, AID463079, AID485270, AID492963, AID492964, AID492965, AID493232, AID504717, AID504718]; format: functional
T7 sequence (O43613 whole entry): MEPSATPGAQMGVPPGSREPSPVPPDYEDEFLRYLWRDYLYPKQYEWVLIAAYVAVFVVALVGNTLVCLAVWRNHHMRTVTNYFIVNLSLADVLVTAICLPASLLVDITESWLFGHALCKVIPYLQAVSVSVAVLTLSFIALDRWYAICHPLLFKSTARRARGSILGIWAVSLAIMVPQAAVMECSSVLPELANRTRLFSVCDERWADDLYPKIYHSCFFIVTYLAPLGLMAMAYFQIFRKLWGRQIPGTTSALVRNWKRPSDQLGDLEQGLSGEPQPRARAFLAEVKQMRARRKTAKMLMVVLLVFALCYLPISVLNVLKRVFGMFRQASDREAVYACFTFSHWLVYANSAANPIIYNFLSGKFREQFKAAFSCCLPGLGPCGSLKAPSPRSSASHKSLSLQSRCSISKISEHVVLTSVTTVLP

[16] = A Cell Based Secondary Assay To Explore Cytotoxicity of Compounds that Sensitize Mycobacterium Tuberculosis to Beta-Lactam Antibiotics.; format: functional
Orexin receptor type 2 [17] = molecular target: T8, Orexin receptor type 2 (Homo sapiens, UniProt O43614); experiment: Counterscreen assay for antagonists of the orexin 1 receptor (OX1R; HCRTR1): Fluorescence-based cell-based dose response assay for antagonists of the orexin 2 receptor (OX2R; HCRTR2), run by assay provider.; format: functional
T8 sequence (O43614 whole entry): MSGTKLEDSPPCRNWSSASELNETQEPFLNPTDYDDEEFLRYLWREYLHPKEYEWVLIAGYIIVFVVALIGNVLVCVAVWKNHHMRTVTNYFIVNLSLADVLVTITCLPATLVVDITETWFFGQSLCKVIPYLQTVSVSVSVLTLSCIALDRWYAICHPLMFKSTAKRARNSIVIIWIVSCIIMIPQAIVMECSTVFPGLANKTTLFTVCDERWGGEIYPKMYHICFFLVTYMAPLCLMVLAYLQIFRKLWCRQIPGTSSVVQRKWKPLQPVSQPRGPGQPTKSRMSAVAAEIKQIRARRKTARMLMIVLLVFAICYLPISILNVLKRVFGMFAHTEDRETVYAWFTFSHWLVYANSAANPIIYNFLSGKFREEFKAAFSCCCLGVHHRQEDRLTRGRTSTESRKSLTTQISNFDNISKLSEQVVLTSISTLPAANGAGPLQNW

Orexin receptor type 2 [18] = molecular target: T8, Orexin receptor type 2; experiment: Counterscreen assay for antagonists of the orexin 1 receptor (OX1R; HCRTR1): Homogeneous Time Resolved Fluorescence (HTRF)-based cell-based dose response assay for antagonists of the orexin 2 receptor (OX2R; HCRTR2), run by assay provider.; format: functional
[19] = molecular target: T7, Orexin/Hypocretin receptor type 1; experiment: as §2, with “Homogeneous Time Resolved Fluorescence (HTRF)-based” for “Fluorescence-based”; format: functional
[20] = as §1, with “Fluorescence-based” for “Homogeneous time resolved fluorescence (HTRF)-based”, “cell-based high throughput” for “cell-based”, “CHO” for “CHO-K1”; format: functional

Cytochrome P450 2C9, sequence (P11712 whole entry): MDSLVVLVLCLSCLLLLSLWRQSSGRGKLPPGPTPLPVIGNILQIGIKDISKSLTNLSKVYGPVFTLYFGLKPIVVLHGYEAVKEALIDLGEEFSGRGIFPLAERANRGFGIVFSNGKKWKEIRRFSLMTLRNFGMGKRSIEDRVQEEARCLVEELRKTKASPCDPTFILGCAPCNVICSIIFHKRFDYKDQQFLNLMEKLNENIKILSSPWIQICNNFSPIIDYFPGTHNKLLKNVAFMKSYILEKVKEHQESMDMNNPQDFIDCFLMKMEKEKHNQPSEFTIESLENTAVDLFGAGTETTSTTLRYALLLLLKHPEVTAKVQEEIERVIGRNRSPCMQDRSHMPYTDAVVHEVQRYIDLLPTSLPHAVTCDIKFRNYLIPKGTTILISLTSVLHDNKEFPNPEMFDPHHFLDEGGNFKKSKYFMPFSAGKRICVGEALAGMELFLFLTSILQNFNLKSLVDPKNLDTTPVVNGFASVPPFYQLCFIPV
Lysosomal acid glucosylceramidase, sequence (P04062 whole entry): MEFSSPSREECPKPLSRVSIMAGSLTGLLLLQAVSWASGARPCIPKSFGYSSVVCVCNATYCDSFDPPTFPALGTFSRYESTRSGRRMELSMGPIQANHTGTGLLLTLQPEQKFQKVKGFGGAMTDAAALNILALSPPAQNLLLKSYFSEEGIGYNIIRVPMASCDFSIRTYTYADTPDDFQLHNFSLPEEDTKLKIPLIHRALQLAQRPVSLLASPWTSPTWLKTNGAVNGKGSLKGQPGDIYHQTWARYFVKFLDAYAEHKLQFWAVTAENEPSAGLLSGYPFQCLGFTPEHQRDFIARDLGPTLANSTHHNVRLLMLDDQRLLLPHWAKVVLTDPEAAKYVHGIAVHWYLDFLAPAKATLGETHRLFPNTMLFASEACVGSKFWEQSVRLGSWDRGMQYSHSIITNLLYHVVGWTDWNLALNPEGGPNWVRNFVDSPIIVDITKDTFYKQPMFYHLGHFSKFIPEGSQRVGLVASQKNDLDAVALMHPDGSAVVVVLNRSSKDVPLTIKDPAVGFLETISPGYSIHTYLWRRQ

SMILES: COc1ccc2c(c1)-c1ccccc1S(=O)(=O)N2C(C)=O
- EC50 [1]: > 50 µM (not active)
- AC50 (Cytochrome P450 2C9): 12.6 µM (inconclusive)
- AC50 (Cytochrome P450 2C19): 25.1 µM (inconclusive)

SMILES: COc1cccc(C(=O)NC(=S)Nn2cnnc2)c1OC
- IC50 (Aspartyl aminopeptidase): 2.08 µM (active)
- IC50 (Procathepsin L): > 59.6 µM (not active)

SMILES: COC(=O)CN1C(=O)C2(OCCCO2)c2cc(Br)ccc21
- EC50 [1]: > 10 µM (not active)

SMILES: COc1ccc2nc(C)cc(SCC(=O)Nc3c(C)cccc3C)c2c1
- EC50 [2]: > 79.4 µM (not active)
- EC50 [3]: > 79.4 µM (not active)
- EC50 [4]: > 79.4 µM (not active)
- EC50 [5]: > 100 µM (not active)

SMILES: COc1ccc2nc(C)cc(SCC(=O)NNC(=O)COc3ccccc3)c2c1
- AC50 (Cytochrome P450 2D6): 10 µM (inconclusive)
- AC50 (Cytochrome P450 2C9): 10 µM (inconclusive)
- EC50 [5]: 79.5 µM (not active)
- AC50 (Cytochrome P450 1A2): 10 µM (inconclusive)
- AC50 (Cytochrome P450 2C19): 3.55 µM (inconclusive)

SMILES: CC(/C=N/NC(=O)CCn1nnc2ccccc21)=C\c1ccccc1
- IC50 [6]: > 100 µM (inactive)

SMILES: Cc1ccc(Cl)cc1N1CCN(C(=O)C2(S(=O)(=O)c3ccc(Cl)cc3)CC2)CC1
- EC50 [7]: 0.928 µM (active)
- EC50 [8]: 5.26 µM (active)

SMILES: COc1ccc(-c2csc(N(Cc3ccccc3)C(=O)c3ccccc3Cl)n2)cc1
- CC50 (Vero [9]): > 40 µM (active)
- CC50 (Vero [10]): > 100 µM (active)

SMILES: O=C(N/N=C/c1ccccn1)c1ccc([N+](=O)[O-])cc1
- IC50 [11]: 14.7 µM (active)
- EC50 (Beta-galactosidase): > 31.5 µM (inactive)
- IC50 [12]: > 32 µM
- EC50 [13]: > 195 µM (not active)

SMILES: Cc1c(Cl)cccc1NC(=O)Nn1cnnc1
- IC50 (Aspartyl aminopeptidase): 1.87 µM (active)
- IC50 (Procathepsin L): > 59.6 µM (not active)

SMILES: O=C(CCCCCCN1C(=O)c2ccccc2C1=O)N1CCC(c2ccccc2)C1 (configuration not stated)
- IC50 [14]: 7.71 µM (active)
- EC50 [7]: 0.624 µM (active)
- EC50 [8]: 1.81 µM (active)
- EC50 [13]: > 195 µM (not active)

SMILES: CCn1c2ccccc2c2cc(NC(=O)c3cccc(OC)c3OC)ccc21
- IC50 (CHO-K1): > 66.2 µM (inactive)
- IC50 [15]: 3.08 µM (active)
- CC50 [16]: > 40 µM (active)
- IC50 (Orexin receptor type 2 [17]): > 88.8 µM (inactive)
- IC50 (Orexin receptor type 2 [18]): > 50 µM (inactive)
- IC50 [19]: 1.7 µM (active)
- IC50 [20]: > 49.8 µM (inactive)
